In ChEMBL document CHEMBL4689842, “EUbOPEN Chemogenomics Library wave 1” (2021):

Key:
Format in all cases: toxicity, cell-based
Fibroblast = assay: Incucyte cell viability with human fibroblast; conditions: 10 µM, compound concentration 10 uM
HEK-293T = assay: Incucyte cell viability with HEK293T; conditions: human, 10 µM, compound concentration 10 uM
U2OS = assay: Incucyte cell viability with U2OS; conditions: human, 10 µM, compound concentration 10 uM
[1] = 0 h, replicate number 1, timepoint 0 hours
[2] = 6 h, replicate number 1, timepoint 6 hours
[3] = 12 h, replicate number 2, timepoint 12 hours
[4] = 18 h, replicate number 1, timepoint 18 hours
[5] = 24 h, replicate number 1, timepoint 24 hours
[6] = 12 h, replicate number 1, timepoint 12 hours
[7] = 6 h, replicate number 2, timepoint 6 hours
[8] = 18 h, replicate number 2, timepoint 18 hours
[9] = 0 h, replicate number 2, timepoint 0 hours
[10] = 24 h, replicate number 2, timepoint 24 hours
Note: filed as whole numbers so only -1 and 0 and 1 occur.

| Compound | Growth Rate (Fibroblast; [1]) | Growth Rate (Fibroblast; [2]) | Growth Rate (Fibroblast; [3]) | Growth Rate (Fibroblast; [4]) | Growth Rate (Fibroblast; [5]) | Growth Rate (HEK-293T; [1]) | Growth Rate (HEK-293T; [2]) | Growth Rate (HEK-293T; [6]) | Growth Rate (HEK-293T; [4]) | Growth Rate (HEK-293T; [5]) | Growth Rate (U2OS; [1]) | Growth Rate (U2OS; [7]) | Growth Rate (U2OS; [6]) | Growth Rate (U2OS; [4]) | Growth Rate (U2OS; [5]) | Growth Rate (Fibroblast; [6]) | Growth Rate (Fibroblast; [8]) | Growth Rate (U2OS; [3]) | Growth Rate (Fibroblast; [7]) | Growth Rate (U2OS; [10]) | also measured |
| --- | --- | --- | --- | --- | --- | --- | --- | --- | --- | --- | --- | --- | --- | --- | --- | --- | --- | --- | --- | --- | --- |
| CC1CCN(CC[C@H]2CCCN2S(=O)(=O)c2cccc(O)c2)CC1.Cl | 0 | 1 | 1 | 1 | 1 | 0 | 1 | 1 | 1 | 1 | 0 | 1 | 1 | 1 | 1 |  |  |  |  |  | Growth Rate (HEK-293T; [3]): 0 |
| COc1ccc(-c2ccc3cc(C(=O)O)ccc3c2)cc1C12CC3CC(CC(C3)C1)C2 | 1 | 0 |  | 0 | 0 | 0 | 1 | 0 | 0 | 0 | 0 | 0 | 1 | 0 | 0 | 0 | 1 | 0 |  |  | Growth Rate (HEK-293T; [7]): 0; Growth Rate (HEK-293T; [8]): 1 |
| Cl.Cl.Cl.c1ccc(N2CCN(Cc3nc4ccccc4[nH]3)CC2)nc1 | 0 |  | 1 |  | 1 | 1 | 1 | 1 | 1 | 0 | 0 | 0 | 1 | 1 | 1 |  | 1 |  |  |  | Growth Rate (HEK-293T; [9]): 0; Growth Rate (HEK-293T; [3]): 0 |
| O=C(O)C1CN(Cc2ccc(-c3nc4cc(Cc5ccccc5F)ccc4s3)c(F)c2)C1 | 0 | 1 |  | 1 | 1 | 1 | 0 | 0 | 0 | 0 | 0 | 0 | 1 | 0 | 1 | 1 |  | 0 | 0 | 0 | Growth Rate (HEK-293T; [9]): 0; Growth Rate (U2OS; [8]): 1 |
| COc1ccc(S(=O)(=O)c2cc(OC)ccc2S(=O)(=O)c2ccc([C@H](C)NS(C)(=O)=O)cc2)cc1 | 0 |  | 1 |  | 1 | 1 | 0 | 1 | 1 | 1 | 0 | 0 | 0 | 1 | 1 |  | 1 | 1 | 0 | 0 | Growth Rate (Fibroblast; [9]): 1; Growth Rate (HEK-293T; [9]): 0; Growth Rate (HEK-293T; [7]): 1; Growth Rate (U2OS; [8]): 0 |
| C[C@H](NC[C@H](O)CP(=O)(O)CC1CCCCC1)c1ccc(Cl)c(Cl)c1.Cl | 0 | 0 |  | 0 | 0 | 1 | 0 | 1 | 1 | 1 | 0 | 0 | 1 | 1 | 1 | 1 |  | 0 |  | 0 | Growth Rate (Fibroblast; [10]): 1; Growth Rate (HEK-293T; [9]): 0; Growth Rate (HEK-293T; [7]): 1; Growth Rate (HEK-293T; [8]): 0 |
| Cc1csc(NC(=O)c2cc(F)cc(Oc3cncnc3)c2)n1 | 0 | 0 |  | 1 | 1 | 0 | 1 | 0 | 1 | 1 |  | 0 | 0 | 0 | 0 | 0 | 0 |  |  | 1 | Growth Rate (Fibroblast; [10]): 0; Growth Rate (HEK-293T; [3]): 1; Growth Rate (HEK-293T; [8]): 0; Growth Rate (HEK-293T; [10]): 0; Growth Rate (U2OS; [2]): 1; Growth Rate (U2OS; [8]): 1 |
| O=C(O)Cn1c(C(=O)Nc2nc(-c3ccccc3Cl)cs2)cc2ccccc21 | 0 | 1 |  | 1 | 0 | 0 | 1 | 1 | 1 | 1 |  | 0 | 1 | 0 | 1 | 0 | 0 |  | 0 |  | Growth Rate (Fibroblast; [9]): 1; Growth Rate (HEK-293T; [7]): 0; Growth Rate (HEK-293T; [3]): 0; Growth Rate (HEK-293T; [8]): 0; Growth Rate (HEK-293T; [10]): 0; Growth Rate (U2OS; [9]): 0 |
| O=C(O)CC/C=C\C[C@@H]1CO[C@H](c2ccccc2Cl)O[C@@H]1c1ccccc1O | 0 | 1 |  | 1 | 1 | 0 | 1 | 1 | 1 | 1 | 0 | 0 | 1 | 0 | 1 | 1 |  | 0 | 0 | 0 | Growth Rate (HEK-293T; [7]): 0; Growth Rate (HEK-293T; [3]): 0 |
| CCNC(=O)c1cc2c(N3CCOC[C@@H]3C)ccnc2n1C | 0 | 1 | 0 | 1 | 1 | 1 | 0 | 0 | 1 | 0 | 0 | 0 | 0 | 0 | 0 | 1 | 0 | 1 | 0 | 1 | Growth Rate (HEK-293T; [9]): 0; Growth Rate (HEK-293T; [10]): 1; Growth Rate (U2OS; [9]): 1; Growth Rate (U2OS; [8]): 1 |
| COC(=O)C(Cc1ccc(OCCn2c(=O)sc3cc(C(=O)c4ccccc4)ccc32)cc1)C(=O)OC | 0 |  | 0 | 1 | 1 | 1 | 0 | 0 | 0 | 0 | 0 | 1 | 1 | 1 | 1 | 1 | 0 |  | 0 |  | Growth Rate (HEK-293T; [9]): 0 |
| O=C([O-])c1cc2ccccc2c(Cc2c(O)c(C(=O)[O-])cc3ccccc23)c1O.[Na+].[Na+] | 0 | 1 |  | 1 | 1 | 0 | 1 | 1 | 1 | 1 | 0 | 1 | 0 | 0 | 0 | 1 |  | 1 |  | 1 |  |
| C[C@H](N)COC(=O)[C@@H](CCCCN)NC(=O)Cc1c(-c2ccc3ccccc3c2)[nH]c2c1ccc1ccccc12 | 0 | 0 | 0 | 0 | 0 | 0 | 1 | 1 | 1 | 1 |  | 0 | 1 | 1 | 1 | 1 |  |  |  |  | Growth Rate (HEK-293T; [7]): 0; Growth Rate (HEK-293T; [3]): 0; Growth Rate (HEK-293T; [8]): 0; Growth Rate (HEK-293T; [10]): 0; Growth Rate (U2OS; [9]): 0 |
| CC1(C)CCC(C)(C)c2cc(C(=O)Nc3ccc(C(=O)O)cc3)ccc21 | 0 | 1 | 0 | 1 | 1 | 0 | 1 | 1 | 1 | 1 | 0 | 1 | 1 | 1 | 1 | 1 | 0 |  | 0 |  |  |
| O=C(Cc1ccccc1)Nc1nc2ccc(Cl)cc2c2nc(-c3ccco3)nn12 | 0 |  | 1 | 0 | 0 | 1 | 0 | 0 | 0 | 0 | 0 | 0 | 1 | 1 | 1 | 0 | 1 | 0 | 0 | 0 | Growth Rate (Fibroblast; [9]): 1; Growth Rate (Fibroblast; [10]): 1; Growth Rate (HEK-293T; [9]): 0; Growth Rate (HEK-293T; [7]): 1; Growth Rate (U2OS; [8]): 0 |
